Test system: outer membrane of Salmonella
Experiment: Outer membrane permeabilization (NPN fluorescence)
Type: cell-based, Salmonella enterica serovar Typhimurium strain SL1344
Settings: test compounds 10 µM final, added at 14 min; NPN 10 µM; 5 mM HEPES, 5 mM glucose pH 7.2; CTAB and Polymyxin B positive controls
Description: The experiments were performed by modifying previously published protocols ([48]–[50]). Salmonella (WT SL1344, JVS-1574) were grown overnight in 4 ml MHB medium at 37 °C (with shaking at 220 rpm). Then the culture was diluted 1:100 and grown until OD 0.5 (∼2×10^8 cfu/mL). This culture was harvested and washed two times with 5mM HEPES and further diluted to OD 0.2 in 5 mM HEPES supplemented with 5 mM Glucose (pH 7.2). These cells were then incubated with N-phenylnaphthylamine (NPN) (Sigma, USA) at a final concentration of 10 µM. 190 µl of NPN treated cells were transferred into 96-well back plates with transparent bottom and fluorescence (excitation = 350 nm, emission = 420 nm) was recorded for 60 min (reading was performed every minute) using a Synergy H1 plate reader (Biotek). On the fourteenth minute, 10 µl of the test compounds (10 µM final concentration) was added into the wells. CTAB (Sigma, USA) 200 µM or Polymyxin B (Sigma, USA) 10 µg/ml (final concentration of 0.5 µg/ml) were used as positive controls, while water was used as negative control. The fluorescence of the wells were monitored using the same settings as above. The experiment was performed three times and Figure 10 is based on a single representative experiment.

## CCCCCCCCCCCCCCCC[N+](C)(C)C.[Br-] [CTAB, reference compound]
  Outer membrane permeabilization, NPN fluorescence (in words): rapid increase in florescence

## Polymyxin B [reference compound]
  Outer membrane permeabilization, NPN fluorescence (in words): rapid increase in florescence

— article doi:10.1101/2023.07.11.548539v1, “A side-by-side comparison of peptide-delivered antisense antibiotics employing different nucleotide mimics” (bioRxiv, 2023)
